Source: patent publication US20240374492A1, “A SUNSCREEN COMPOSITION COMPRISING AVOBENZONE AND A METHOD FOR PHOTOSTABILIZATION” (ISP Investments LLC, priority 2021, published 2024)

Test: Photostability of avobenzone in combination with solvents (UV absorbance profile before and after 10 MED radiation)
Format: physicochemical
Conditions: avobenzone with the solvent; for Stability of Avobenzone: 10 MED radiation, solar simulator, UV absorbance 290-400 nm on PMMA plates; for Stability of avobenzone-solvent combination (UV absorbance profile after 10 MED radiation vs initial, FIG. 1 to FIG. 6): before and after 10 MED radiation
Text: 10 minimal erythemal dose (MED) is a quantified dose of radiation that is known for causing skin damage. UV screening agents will eventually breakdown into smaller molecule after prolonged exposure to UV radiation. This is a common, expected phenomenon however, some UV screening agents will degrade faster within the time a person is exposed to sunlight. If the UV screening agent degrades, it loses the ability to absorb UV radiations and eventually results in a lower absorption profile, that translate into a lower SPF value.
If the absorption profile of a specimen, prepared from a UV screening agent-solvent combination, measured after a predefined exposure of 10 MED radiation, reads similar to that of its initial readings, then the UV screening agent is said to be stable in that particular combination of solvent.
Method of testing photostability: For each test formulations prepared according to Table-1 to Table-7, 1.80 mg/cm^2 of samples were deposited on PMMA (polymethyl methacrylate) plates and spread evenly using finger cots. Three plates were prepared for each product. The initial UV absorbance profile of each slide was measured with a UV-VIS spectrophotometer in the wavelength range of 290-400 nm. Four readings were taken for each slide. The test slides were then exposed to 10 MED radiation using a Solar Light LS1000R3 solar simulator. The slides were then equilibrated at room temperature for 15 minutes, and the UV absorbance profile post radiation was measured. The readings were then plotted to correlate initial absorbance behavior of the specimens to that of post radiation. Any degradation of the UV screening agent will result in a lower absorbance readings compared to that of the initial absorbance profile.
FIG. 1 to FIG. 6 illustrate graphs plotted based on UV absorbance profile measured before and after an exposure of 10 MED radiation on test specimens comprising combination of avobenzone and solvents selected from Table-8.

Row | Compound | Stability of Avobenzone | Stability of avobenzone-solvent combination (UV absorbance profile after 10 MED radiation vs initial, FIG. 1 to FIG. 6)
1 | O=C(OC1CCCCC1)c1ccccc1 [Cyclohexyl Benzoate] | not stable | highly instable
2 | CC(CCOC(=O)c1ccccc1)OC(=O)c1ccccc1 (stereo not drawn) [1,3-Butylene glycol Dibenzoate] | not stable | highly instable
3 | Cc1ccccc1C(=O)OC1CCCCC1 [Cyclohexyl o-toluate] | not stable | highly instable
4 | CCc1ccc(C(=O)OCc2ccccc2)cc1 [Benzyl 4-Ethylbenzoate] | not stable | –
5 | Cc1ccccc1C(=O)OCCc1ccccc1 [2-Phenylethyl o-toluate] | stable | stable
6 | O=C(OCCc1ccccc1)C1CCCCC1 [2-Phenylethyl Cyclohexanoate] | not stable | –
7 | O=C(OCCC1CCCCC1)c1ccccc1 [2-Cyclohexylethyl Benzoate] | not stable | –
8 | O=C(OCCCc1ccccc1)c1ccccc1 [3-Phenylpropyl Benzoate] | stable | –
9 | Cc1ccccc1C(=O)OCc1ccccc1 [Benzyl o-toluate] | stable | stable
10 | CCCCCC(=O)OCCc1ccccc1 [2-Phenylethyl Hexanoate] | not stable | –
11 | CCC(OC(=O)c1ccccc1)c1ccccc1 (stereo not drawn) [1-Phenylpropyl Benzoate] | not stable | –
12 | O=C(OCc1ccccc1)c1ccccc1 [Benzyl Benzoate] | stable | –
13 | Cc1ccccc1COC(=O)c1ccccc1 [o-Methylbenzyl Benzoate] | not stable | –
14 | Cc1cccc(COC(=O)c2ccccc2)c1 [m-Methylbenzyl Benzoate] | not stable | –
15 | CC(COC(=O)c1ccccc1)OC(=O)c1ccccc1 (stereo not drawn) [Propylene glycol Dibenzoate] | not stable | highly instable
16 | O=C(OCc1ccccc1)c1ccccc1O [Benzyl Salicylate] | not stable | –
17 | CCC(=O)OCCc1ccccc1 [2-Phenylethyl Propionate] | not stable | –
18 | C12-C15 alkyl benzoate | not stable | highly instable
19 | CC(C)(C)c1ccc(C(=O)OCc2ccccc2)cc1 [Benzyl 4-tert-Butylbenzoate] | not stable | highly instable
20 | Cc1ccc(C(=O)OC(C)c2ccccc2)cc1 (stereo not drawn) [1-Phenylethyl p-toluate] | not stable | –
21 | Cc1cccc(C(=O)OCc2ccccc2)c1 [Benzyl m-toluate] | not stable | –
22 | CCN(CC)C(=O)c1cccc(C)c1 [N,N-Diethyl m-toluamide] | not stable | highly instable
23 | O=C(OCCc1ccccc1)c1ccccc1 [Phenethyl benzoate] | stable | stable
